Source: PubChem BioAssay AID248 (DTP/NCI, 2004)
Toxic doses and inconclusive results are not listed.

Tested on: L1210 leukemia ip in BDF1 mice, survival T/C
Test: NCI In Vivo Anticancer Drug Screen. Data for tumor model L1210 Leukemia (intraperitoneal) in B6D2F1 (BDF1) mice
Conditions: higher = longer survival
Outline: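 Value reflects the ratio of survival in compound-treated mice to survival in vehicle-treated controls, with both groups carrying the same transplanted tumor.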

[1] = endpoint: mean survival time, dose: 100.0 mg/kg/injection, schedule: Q04DX002 (ip), vehicle: saline
[2] = endpoint: mean survival time, dose: 100.0 mg/kg/injection, schedule: Q04DX003 (ip), vehicle: saline
[3] = endpoint: mean survival time, dose: 200.0 mg/kg/injection, schedule: Q04DX003 (ip), vehicle: saline
[4] = endpoint: mean survival time, dose: 400.0 mg/kg/injection, schedule: Q04DX003 (ip), vehicle: saline
[5] = endpoint: mean survival time, dose: 25.0 mg/kg/injection, schedule: Q04DX002 (ip), vehicle: Klucel (hydroxypropylcellulose) (HPC)
[6] = endpoint: mean survival time, dose: 50.0 mg/kg/injection, schedule: Q04DX002 (ip), vehicle: Klucel (hydroxypropylcellulose) (HPC)
[7] = endpoint: mean survival time, dose: 100.0 mg/kg/injection, schedule: Q04DX002 (ip), vehicle: Klucel (hydroxypropylcellulose) (HPC)
[8] = endpoint: mean survival time, dose: 100.0 mg/kg/injection, schedule: Q01DX001 (ip), vehicle: saline with Tween-80
[9] = endpoint: mean survival time, dose: 200.0 mg/kg/injection, schedule: Q01DX001 (ip), vehicle: saline with Tween-80
[10] = endpoint: mean survival time, dose: 400.0 mg/kg/injection, schedule: Q01DX001 (ip), vehicle: saline with Tween-80
[11] = endpoint: mean survival time, dose: 50.0 mg/kg/injection, schedule: Q01DX009 (ip), vehicle: saline with Tween-80
[12] = endpoint: mean survival time, dose: 100.0 mg/kg/injection, schedule: Q01DX009 (ip), vehicle: saline with Tween-80
[13] = endpoint: mean survival time, dose: 100.0 mg/kg/injection, schedule: Q04DX003 (ip), vehicle: saline with Tween-80
[14] = endpoint: mean survival time, dose: 200.0 mg/kg/injection, schedule: Q01DX009 (ip), vehicle: saline with Tween-80
[15] = endpoint: mean survival time, dose: 200.0 mg/kg/injection, schedule: Q04DX003 (ip), vehicle: saline with Tween-80
[16] = endpoint: mean survival time, dose: 100.0 mg/kg/injection, schedule: Q01DX001 (ip), vehicle: saline
[17] = endpoint: mean survival time, dose: 400.0 mg/kg/injection, schedule: Q01DX001 (ip), vehicle: saline

With `Cn1c([N+](=O)[O-])cnc1/C=[N+](/C)[O-]` the T/C [1] was 107 % of control, the T/C (endpoint: mean survival time, dose: 200.0 mg/kg/injection, schedule: Q04DX002 (ip), vehicle: saline) was 100 % of control and the T/C (endpoint: mean survival time, dose: 400.0 mg/kg/injection, schedule: Q04DX002 (ip), vehicle: saline) was 107 % of control.

With `Nc1ncnc2c1nc(Br)n2C1OC(CO)C(O)C1O` (centres undefined) the T/C [2] was 97 % of control, the T/C [3] was 101 % of control and the T/C [4] was 101 % of control.

With `NC(CCSCc1ccccc1)C(=O)O` (centres undefined) the T/C (endpoint: mean survival time, dose: 12.5 mg/kg/injection, schedule: Q04DX002 (ip), vehicle: Klucel (hydroxypropylcellulose) (HPC)) was 107 % of control, the T/C [5] was 97 % of control and the T/C [6] was 97 % of control. The T/C [7] was 113 % of control, the T/C (endpoint: mean survival time, dose: 200.0 mg/kg/injection, schedule: Q04DX002 (ip), vehicle: Klucel (hydroxypropylcellulose) (HPC)) was 98 % of control and the T/C (endpoint: mean survival time, dose: 400.0 mg/kg/injection, schedule: Q04DX002 (ip), vehicle: Klucel (hydroxypropylcellulose) (HPC)) was 98 % of control.

`COc1cccc(C(=O)O)c1N` was tested, and the T/C (endpoint: mean survival time, dose: 25.0 mg/kg/injection, schedule: Q01DX001 (ip), vehicle: Klucel (hydroxypropylcellulose) (HPC)) was 102 % of control, the T/C (endpoint: mean survival time, dose: 50.0 mg/kg/injection, schedule: Q01DX001 (ip), vehicle: Klucel (hydroxypropylcellulose) (HPC)) was 98 % of control and the T/C (endpoint: mean survival time, dose: 100.0 mg/kg/injection, schedule: Q01DX001 (ip), vehicle: Klucel (hydroxypropylcellulose) (HPC)) was 91 % of control.

In the case of `NC(CSS(=O)(=O)O)=NCCCC1CCCCC1`, the T/C (endpoint: mean survival time, dose: 6.25 mg/kg/injection, schedule: Q04DX002 (ip), vehicle: saline with Tween-80) is reported as 97 % of control and the T/C (endpoint: mean survival time, dose: 12.5 mg/kg/injection, schedule: Q04DX002 (ip), vehicle: saline with Tween-80) is reported as 101 % of control.

`IC#Cc1ccccc1` was tested, and the T/C [8] was 112 % of control, the T/C [9] was 105 % of control and the T/C [10] was 105 % of control.

`CCCCCCCCCCCCCCCCc1ccc(O)cc1O` was tested, and the T/C (endpoint: mean survival time, dose: 12.5 mg/kg/injection, schedule: Q04DX003 (ip), vehicle: Klucel (hydroxypropylcellulose) (HPC)) was 103 % of control, the T/C (endpoint: mean survival time, dose: 25.0 mg/kg/injection, schedule: Q01DX009 (ip), vehicle: saline with Tween-80) was 100 % of control and the T/C (endpoint: mean survival time, dose: 25.0 mg/kg/injection, schedule: Q04DX003 (ip), vehicle: Klucel (hydroxypropylcellulose) (HPC)) was 95 % of control. For the same compound, the T/C [11] was 105 % of control, the T/C (endpoint: mean survival time, dose: 50.0 mg/kg/injection, schedule: Q04DX003 (ip), vehicle: Klucel (hydroxypropylcellulose) (HPC)) was 95 % of control and the T/C [12] was 95 % of control. The T/C [13] was 94 % of control.

`CCOc1cc(-c2nc(-c3ccc(N=Cc4ccc(N(CCCOS(C)(=O)=O)CCCOS(C)(=O)=O)cc4)cc3)cs2)ccc1OCc1ccccc1` was tested, and the T/C [12] was 92 % of control, the T/C [14] was 94 % of control and the T/C (endpoint: mean survival time, dose: 400.0 mg/kg/injection, schedule: Q01DX009 (ip), vehicle: saline with Tween-80) was 92 % of control.

With `CCCCCCCCCCCCCCCCCCCCCC(=O)Nc1ccn(C2OC(CO)C(O)C2O)c(=O)n1` (centres undefined) the T/C (endpoint: median survival time, dose: 25.0 mg/kg/injection, schedule: Q01DX009 (ip), vehicle: saline with Tween-80) was 217 % of control, the T/C (endpoint: median survival time, dose: 50.0 mg/kg/injection, schedule: Q01DX009 (ip), vehicle: saline with Tween-80) was 234 % of control and the T/C (endpoint: median survival time, dose: 100.0 mg/kg/injection, schedule: Q01DX009 (ip), vehicle: saline with Tween-80) was 234 % of control. The T/C (endpoint: median survival time, dose: 200.0 mg/kg/injection, schedule: Q01DX009 (ip), vehicle: saline with Tween-80) was 382 % of control and the T/C (endpoint: median survival time, dose: 400.0 mg/kg/injection, schedule: Q01DX009 (ip), vehicle: saline with Tween-80) was 340 % of control.

For `O=C(c1ccco1)c1cc(Cl)c(Cl)cc1Cl`, the T/C [8] was 100 % of control, the T/C [9] was 95 % of control and the T/C [10] was 98 % of control.

In the case of `C1=CC2CC1CC2[P+](c1ccccc1)(c1ccccc1)c1ccccc1` (centres undefined), the T/C (endpoint: mean survival time, dose: 12.5 mg/kg/injection, schedule: Q01DX001 (ip), vehicle: saline) is reported as 117 % of control, the T/C (endpoint: mean survival time, dose: 25.0 mg/kg/injection, schedule: Q01DX001 (ip), vehicle: saline) is reported as 98 % of control and the T/C (endpoint: mean survival time, dose: 50.0 mg/kg/injection, schedule: Q01DX001 (ip), vehicle: saline) is reported as 95 % of control.

With `CCCCN(CCCC)S(=O)(=O)CCCC` the T/C [2] was 91 % of control, the T/C [3] was 103 % of control and the T/C [4] was 94 % of control.

`[O-][N+](=Nc1cccc(Cl)c1)c1cccc(Cl)c1` was tested, and the T/C [11] was 97 % of control, the T/C (endpoint: mean survival time, dose: 50.0 mg/kg/injection, schedule: Q04DX003 (ip), vehicle: saline with Tween-80) was 102 % of control and the T/C [12] was 101 % of control. The T/C [13] was 98 % of control, the T/C [14] was 97 % of control and the T/C [15] was 112 % of control.

With `O=c1/c(=C\c2ccc(Cl)c(Cl)c2)sc2n1CCN=2` the T/C [16] was 86 % of control and the T/C [17] was 93 % of control.

With `Cc1cc2c3ccccc3c3ccccc3c2nn1` the T/C [16] was 103 % of control, the T/C (endpoint: mean survival time, dose: 200.0 mg/kg/injection, schedule: Q01DX001 (ip), vehicle: saline) was 101 % of control and the T/C [17] was 100 % of control.

With `O=S(=O)(c1ccccc1)N1C=CC=CC=C1` the T/C [5] was 102 % of control, the T/C [6] was 102 % of control and the T/C [7] was 105 % of control.

`O=C(Nc1ccc(Cl)cc1)c1cccnc1` was tested, and the T/C [12] was 95 % of control, the T/C [13] was 96 % of control and the T/C [14] was 97 % of control. For the same compound, the T/C [15] was 98 % of control and the T/C (endpoint: mean survival time, dose: 400.0 mg/kg/injection, schedule: Q04DX003 (ip), vehicle: saline with Tween-80) was 91 % of control.

In the case of `O=S(c1cc(Cl)cc(Cl)c1O)c1cc(Cl)cc(Cl)c1O`, the T/C (endpoint: mean survival time, dose: 50.0 mg/kg/injection, schedule: Q01DX001 (ip), vehicle: carboxymethylcellulose (CMC)) is reported as 95 % of control, the T/C (endpoint: mean survival time, dose: 100.0 mg/kg/injection, schedule: Q01DX001 (ip), vehicle: carboxymethylcellulose (CMC)) is reported as 98 % of control and the T/C (endpoint: mean survival time, dose: 200.0 mg/kg/injection, schedule: Q01DX001 (ip), vehicle: carboxymethylcellulose (CMC)) is reported as 101 % of control. For the same compound, the T/C (endpoint: mean survival time, dose: 400.0 mg/kg/injection, schedule: Q01DX001 (ip), vehicle: carboxymethylcellulose (CMC)) was 114 % of control.

With `O=S1Oc2ccccc2O1` the T/C (endpoint: mean survival time, dose: 75.0 mg/kg/injection, schedule: Q01DX001 (ip), vehicle: saline) was 117 % of control and the T/C (endpoint: mean survival time, dose: 150.0 mg/kg/injection, schedule: Q01DX001 (ip), vehicle: saline) was 103 % of control.

With `COC1COC(OC)C(OC)C1OC` (centres undefined) the T/C (endpoint: mean survival time, dose: 25.0 mg/kg/injection, schedule: Q04DX002 (ip), vehicle: saline) was 87 % of control, the T/C (endpoint: mean survival time, dose: 50.0 mg/kg/injection, schedule: Q04DX002 (ip), vehicle: saline) was 104 % of control and the T/C [1] was 90 % of control.

In the case of `NC(N)=N/N=C\c1c[nH]c2ccc(Br)cc12`, the T/C (endpoint: mean survival time, dose: 15.0 mg/kg/injection, schedule: Q01DX Z (ip), vehicle: saline) is reported as 96 % of control, the T/C (endpoint: mean survival time, dose: 30.0 mg/kg/injection, schedule: Q01DX Z (ip), vehicle: saline) is reported as 113 % of control and the T/C (endpoint: mean survival time, dose: 60.0 mg/kg/injection, schedule: Q01DX Z (ip), vehicle: saline) is reported as 103 % of control. The T/C (endpoint: mean survival time, dose: 120.0 mg/kg/injection, schedule: Q01DX Z (ip), vehicle: saline) was 106 % of control, the T/C (endpoint: mean survival time, dose: 240.0 mg/kg/injection, schedule: Q01DX Z (ip), vehicle: saline) was 98 % of control and the T/C (endpoint: mean survival time, dose: 240.0 mg/kg/injection, schedule: Q01DX Z (oral), vehicle: saline) was 94 % of control. For the same compound, the T/C (endpoint: mean survival time, dose: 480.0 mg/kg/injection, schedule: Q01DX Z (oral), vehicle: saline) was 94 % of control.

In the case of `CNN`, the T/C (endpoint: mean survival time, dose: 20.0 mg/kg/injection, schedule: Q04DX003 (ip), vehicle: saline) is reported as 101 % of control, the T/C (endpoint: mean survival time, dose: 25.0 mg/kg/injection, schedule: Q01DX009 (ip), vehicle: saline) is reported as 103 % of control and the T/C (endpoint: mean survival time, dose: 40.0 mg/kg/injection, schedule: Q04DX003 (ip), vehicle: saline) is reported as 121 % of control. For the same compound, the T/C (endpoint: mean survival time, dose: 80.0 mg/kg/injection, schedule: Q04DX003 (ip), vehicle: saline) was 111 % of control and the T/C [2] was 96 % of control.
